# PMC12392461, “Beyond Estrogenicity: A Comparative Assessment of Bisphenol A and Its Alternatives in In Vitro Assays Questions Safety of Replacements” (Environmental Science & Technology, 2025)
# Where two headings read alike, the source gives them in different places.
# Tests used:
# [1] = Acidity constant (pKa) measurement, Sirius T3 UV-metric, and speciation at pH 7.4; conditions: for Double negative form (pH = 7.40) / Negative form (pH = 7.40) / Neutral form (pH = 7.40) / αneutral % (fraction of neutral species): from experimental pKa; for αneutral % (fraction of neutral species): pH 7.4; for pKa: pKa (Acid)
# [2] = test system: Mitochondrial Membrane Potential; test: cells
# [3] = test system: SH-SY5Y cells; test: cells; conditions: for EC10, linear: NOI bioassay, dosing range all, linear model; for EC10: Homo sapiens, SH-SY5Y
# Method in brief: (§1)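 Only concentrations below cytotoxic IC10 entered EC10 or ECIR1.5 derivation, with ECIR1.5 serving as the ARE benchmark in AREc32 (MCF7) cells. AhR was read in H4L7.5c2 CALUX cells. SH-SY5Y cells received 10 µM all-trans retinoic acid for differentiation and were assessed by live–dead staining; other lines by confluency.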
# [4] = test system: Antioxidant response element; test: MitoOxTox: oxidative stress response in AREc32; conditions: for EC10, linear: linear model fit
# Method in brief: as §1
# [5] = Arec32, read-out: EC10, MMP (M)
# [6] = Arec32, read-out: EC10, linear transformed
structure (smiles),measurement,setting,value
"CC(C)(c1cc(Br)c(O)c(Br)c1)c1cc(Br)c(O)c(Br)c1 [TBBPA, 3,3',5,5'-Tetrabromobisphenol A]",Double negative form (pH = 7.40),[1],56%
same,Negative form (pH = 7.40),[1],39%
same,Neutral form (pH = 7.40),[1],4.58%
same,αneutral % (fraction of neutral species),[1],5%
same,pKa,"[1]; phosphate buffer with […] KCl, Sirius T3 titrator, second pKa column, experimental, this study",7.24
same,pKa,"[1]; phosphate buffer with […] KCl, Sirius T3 titrator, experimental, this study",6.47
same,EC10,"[2]; Arec32, read-out: EC10, MMP",2.83e-05 M
same,EC10,[2]; [5],2.83e-05 M
same,EC10,"[2]; Arec32, read-out: EC10, linear",1.94e-05 M
same,EC10,[2]; [6],2.89e-05 M
same,EC10,"[2]; Arec32, read-out: logEC10",2.82e-05 M
same,logEC10,[3],no effect
same,"EC10, linear",[3],no effect
same,logEC10,[4],no effect
same,"EC10, linear","[4]; Bioassay ARE, dosing range all",no effect
"CC(C)(c1cc(Cl)c(O)c(Cl)c1)c1cc(Cl)c(O)c(Cl)c1 [TCBPA, 2,2',6,6'-Tetrachlorobisphenol A]",pKa (Acid),[1],8.13
same,Double negative form (pH = 7.40),[1],11%
same,Negative form (pH = 7.40),[1],60%
same,Neutral form (pH = 7.40),[1],29%
same,αneutral % (fraction of neutral species),[1],29%
same,pKa,[1],7.08
same,EC10,"[2]; Arec32, read-out: EC10, MMP",1.48e-05 M
same,EC10,[2]; [5],1.48e-05 M
same,EC10,"[2]; Arec32, read-out: EC10, linear",1.15e-05 M
same,EC10,[2]; [6],1.6e-05 M
same,EC10,"[2]; Arec32, read-out: logEC10",1.48e-05 M
same,EC10,"[3]; read-out: EC10, NOI",0.000322 M
same,EC10,"[3]; read-out: EC10, NOI (M)",0.000322 M
same,EC10,"[3]; read-out: EC10, linear transformed",0.000322 M
same,EC10,[3]; read-out: logEC10,0.000324 M
same,"EC10, linear",[3],masked by cytotoxicity
same,"EC10, linear","[4]; Bioassay ARE, dosing range all",no effect
same,logEC10,"[4]; Bioassay ARE, dosing range all, log-logistic model fit",no effect
